Laboratory results published in ChEMBL document CHEMBL2396618, “Macrocyclic inhibitors of 3C and 3C-like proteases of picornavirus, norovirus, and coronavirus” (Bioorg Med Chem Lett, 2013).

Tests used:
[1] = Inhibition of norovirus 3CLpro using Edans-DFHLQ/GP-Dabcyl as substrate preincubated for 30 mins followed by substrate addition by FRET assay
Genome polyprotein = Genome polyprotein (Coxsackievirus B3 (strain Nancy), UniProt P03313); assay: Inhibition of Coxsackievirus B3 Nancy 3Cpro
Replicase polyprotein 1a = Replicase polyprotein 1a (Severe acute respiratory syndrome-related coronavirus, UniProt P0C6U8); assay: Inhibition of SARS coronavirus 3CLpro using Dabcyl-KTSAVLQ/SGFRKME-Edans as substrate preincubated for 30 mins followed by substrate addition by FRET assay

Genome polyprotein, sequence (P03313 1541-1723 limits assumed): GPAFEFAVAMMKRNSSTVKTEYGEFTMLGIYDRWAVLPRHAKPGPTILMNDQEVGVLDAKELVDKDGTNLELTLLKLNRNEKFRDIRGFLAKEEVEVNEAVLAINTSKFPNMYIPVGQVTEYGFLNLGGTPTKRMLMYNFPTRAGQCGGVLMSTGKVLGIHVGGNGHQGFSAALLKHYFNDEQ

Q: Which results are given for `CC(C)C[C@@H]1NC(=O)[C@@H](NC(=O)OCc2ccccc2)Cc2cn(nn2)CCCNC(=O)CC[C@@H](C=O)NC1=O`?
A: IC50 [1]: 5.1 µM; IC50 (Genome polyprotein): 1.8 µM; IC50 (Replicase polyprotein 1a): 15.5 µM
